Test: Storage test at 60° C. and 68% relative humidity, vitamin A analysed by UPLC
Type: physicochemical
Conditions: storage at 60° C. and 68% RH; 0.825 wt. % vitamin A palmitate in oil; FIGS. 1 to 7
Method: Palm oil (SUNIA), and vitamin A palmitate (Vitamin A Palmitate 1.7 MIU/g-DSM) were heated in an oven at 60°. Vitamin A palmitate was not held above 60° C. for longer than 5 minutes to avoid possible degradation. The oil was mixed with vitamin A palmitate in a 0.5 liter Schott bottle and then stirred for 10 minutes in a 50° C. water bath. Initial vitamin A palmitate content was 0.825% in oil (a vitamin A palmitate content of 0.165 wt. % in powdered bran). The total amount of lipid was 100 g. A quantity of 10 g of lipid containing vitamin A palmitate was then mixed with 40 g of powdered rice bran with or without phytic acid (Herba Ingredients) in a mortar during 5 minutes. […]
A quantity of 10 g of lipid containing 0.825 wt. % of vitamin A palmitate was mixed with 40 g of wheat bran in a mortar during 5 minutes. […]
A quantity of 10 g of lipid containing 0.825 wt. % of vitamin A palmitate was mixed with 40 g of maltodextrin DE21 in a mortar during 5 minutes. […]
A quantity of 10 g of lipid containing 0.825 wt. % of vitamin A palmitate and 1.87 g of iron pyrophosphate powder were mixed with 38.13 g of powdered rice bran (Herba Ingredients) in a mortar during 5 minutes. […]
For the storage tests, the crystallizing dishes were transferred into a climatic chamber regulated at 60° C. and 68% relative humidity, before being analyzed. […]

CCCCCCCCCCCCCCCC(=O)OC/C=C(C)/C=C/C=C(C)/C=C/C1=C(C)CCCC1(C)C [vitamin A palmitate, retinyl palmitate]
vitamin A stability (degradation curves): very sensitive to temperature and degrades fast
